Assay results reported in US20040087633A1, “Methylidene oxazolidinone compound and preparation method thereof” (Korea Institute of Science and Technology, priority 2002, published 2004).
In brackets after ≈: the same amount, converted by molar mass.

Legend:
Assay in all cases: Anti-microbial activity test in vitro (agar dilution MIC)
CRSA C1062 = type: cell-based, Staphylococcus aureus; settings: CRSA C1062; Agar Dilution method, Mueller Hinton Agar, 18 hours at 37° C.
Protocol: (§1) Anti-microbial activity test in vitro
(§2) Strains were cultivated for 18 hours at 37° C. in Agar Dilution method using Mueller Hinton Agar, and then plane plates inoculated with the strains by diluting them two times gradually were aligned in a row. Minimum inhibition concentration (MIC, μg/ml) for the representative compounds of the present invention, Linezolid (LZD) and vancomycin (VAN) were decided through visual observation, and the results are shown in the following tables 2 and 3.

CRSA C6043 = type: cell-based, Staphylococcus aureus; settings: CRSA C6043; Agar Dilution method, Mueller Hinton Agar, 18 hours at 37° C.
Protocol: as §1, §2

MRSA C2207 = type: cell-based, Staphylococcus aureus; settings: MRSA C2207; Agar Dilution method, Mueller Hinton Agar, 18 hours at 37° C.
Protocol: as §1, §2

MRSA C5100 = type: cell-based, Staphylococcus aureus; settings: MRSA C5100; Agar Dilution method, Mueller Hinton Agar, 18 hours at 37° C.
Protocol: as §1, §2

MRSA C6068 = type: cell-based, Staphylococcus aureus; settings: MRSA C6068; Agar Dilution method, Mueller Hinton Agar, 18 hours at 37° C.
Protocol: as §1, §2

MSSA C2214 = type: cell-based, Staphylococcus aureus; settings: MSSA C2214; Agar Dilution method, Mueller Hinton Agar, 18 hours at 37° C.
Protocol: as §1, §2

MSSA C7142 = type: cell-based, Staphylococcus aureus; settings: MSSA C7142; Agar Dilution method, Mueller Hinton Agar, 18 hours at 37° C.
Protocol: as §1, §2

E. faecalis ATCC29212 = type: cell-based; settings: E. faecalis ATCC29212; Agar Dilution method, Mueller Hinton Agar, 18 hours at 37° C.
Protocol: as §1, §2

E. faecalis C6288 = type: cell-based; settings: E. faecalis C6288; Agar Dilution method, Mueller Hinton Agar, 18 hours at 37° C.
Protocol: as §1, §2

E. faecalis C6291 = type: cell-based; settings: E. faecalis C6291; Agar Dilution method, Mueller Hinton Agar, 18 hours at 37° C.
Protocol: as §1, §2

E. faecium C2252 = type: cell-based; settings: E. faecium C2252; Agar Dilution method, Mueller Hinton Agar, 18 hours at 37° C.
Protocol: as §1, §2

E. faecium C6301 = type: cell-based; settings: E. faecium C6301; Agar Dilution method, Mueller Hinton Agar, 18 hours at 37° C.
Protocol: as §1, §2

S. aureus ATCC 29213 = type: cell-based; settings: Agar Dilution method, Mueller Hinton Agar, 18 hours at 37° C.
Protocol: as §1, §2

S. epidermidis ATCC12228 = type: cell-based; settings: S. epidermidis ATCC12228; Agar Dilution method, Mueller Hinton Agar, 18 hours at 37° C.
Protocol: as §1, §2

S. epidermidis C2230 = type: cell-based; settings: S. epidermidis C2230; Agar Dilution method, Mueller Hinton Agar, 18 hours at 37° C.
Protocol: as §1, §2

S. epidermidis C2235 = type: cell-based; settings: S. epidermidis C2235; Agar Dilution method, Mueller Hinton Agar, 18 hours at 37° C.
Protocol: as §1, §2

S. pyogenes ATCC8668 = type: cell-based; settings: S. pyogenes ATCC8668; Agar Dilution method, Mueller Hinton Agar, 18 hours at 37° C.
Protocol: as §1, §2

S. pyogenes C6003 = type: cell-based; settings: S. pyogenes C6003; Agar Dilution method, Mueller Hinton Agar, 18 hours at 37° C.
Protocol: as §1, §2

S. pyogenes C6012 = type: cell-based; settings: S. pyogenes C6012; Agar Dilution method, Mueller Hinton Agar, 18 hours at 37° C.
Protocol: as §1, §2

VRE C6487 = type: cell-based, Enterococcus faecium; settings: VRE C6487; Agar Dilution method, Mueller Hinton Agar, 18 hours at 37° C.
Protocol: as §1, §2

VRE C6488 = type: cell-based, Enterococcus faecium; settings: VRE C6488; Agar Dilution method, Mueller Hinton Agar, 18 hours at 37° C.
Protocol: as §1, §2

Minimum inhibition concentration (MIC) (CRSA C1062) [µg/mL] | Minimum inhibition concentration (MIC) (CRSA C6043) [µg/mL] | Minimum inhibition concentration (MIC) (MRSA C2207) [µg/mL] | Minimum inhibition concentration (MIC) (MRSA C5100) [µg/mL] | Minimum inhibition concentration (MIC) (MRSA C6068) [µg/mL] | Minimum inhibition concentration (MIC) (MSSA C2214) [µg/mL] | Minimum inhibition concentration (MIC) (MSSA C7142) [µg/mL] | Minimum inhibition concentration (MIC) (E. faecalis ATCC29212) [µg/mL] | Minimum inhibition concentration (MIC) (E. faecalis C6288) [µg/mL] | Minimum inhibition concentration (MIC) (E. faecalis C6291) [µg/mL] | Minimum inhibition concentration (MIC) (E. faecium C2252) [µg/mL] | Minimum inhibition concentration (MIC) (E. faecium C6301) [µg/mL] | Minimum inhibition concentration (MIC) (S. aureus ATCC 29213) [µg/mL] | Minimum inhibition concentration (MIC) (S. epidermidis ATCC12228) [µg/mL] | Minimum inhibition concentration (MIC) (S. epidermidis C2230) [µg/mL] | Minimum inhibition concentration (MIC) (S. epidermidis C2235) [µg/mL] | Minimum inhibition concentration (MIC) (S. pyogenes ATCC8668) [µg/mL] | Minimum inhibition concentration (MIC) (S. pyogenes C6003) [µg/mL] | Minimum inhibition concentration (MIC) (S. pyogenes C6012) [µg/mL] | Minimum inhibition concentration (MIC) (VRE C6487) [µg/mL] | Compound | other results
4 (≈ 9 µM) | 4 (≈ 9 µM) | 4 (≈ 9 µM) | 4 (≈ 9 µM) | 4 (≈ 9 µM) | 4 (≈ 9 µM) | 4 (≈ 9 µM) | 4 (≈ 9 µM) | 4 (≈ 9 µM) | 4 (≈ 9 µM) | 4 (≈ 9 µM) | 2 (≈ 4.5 µM) | 4 (≈ 9 µM) | 1 (≈ 2.25 µM) | 2 (≈ 4.5 µM) | 2 (≈ 4.5 µM) | 1 (≈ 2.25 µM) | 4 (≈ 9 µM) | 1 (≈ 2.25 µM) | 2 (≈ 4.5 µM) | CCOC(=O)C(C#N)=C1CCN(c2ccc(N3C[C@H](CNC(C)=O)OC3=O)cc2F)CC1 [Compound 7, N-[[(5S)-3-[3-fluoro-4-((4-(1-ethoxycarbonyl-1-cyano)-methylidene)piperidinyl)phenyl]-2-oxo-5-oxazolidinyl]methyl]acetamide] | Minimum inhibition concentration (MIC) (VRE C6488): 2 µg/mL (≈ 4.5 µM)
16 (≈ 40.9 µM) | 8 (≈ 20.4 µM) | 8 (≈ 20.4 µM) | 4 (≈ 10.2 µM) | 4 (≈ 10.2 µM) | 8 (≈ 20.4 µM) | 8 (≈ 20.4 µM) | 8 (≈ 20.4 µM) | 4 (≈ 10.2 µM) | 8 (≈ 20.4 µM) | 8 (≈ 20.4 µM) | 4 (≈ 10.2 µM) | 8 (≈ 20.4 µM) | 1 (≈ 2.55 µM) | 4 (≈ 10.2 µM) | 1 (≈ 2.55 µM) | 4 (≈ 10.2 µM) | 2 (≈ 5.11 µM) | 8 (≈ 20.4 µM) | 1 (≈ 2.55 µM) | CC(=O)NC[C@H]1CN(c2ccc(N3CCC(=CC(=O)O)CC3)c(F)c2)C(=O)O1 [Compound 14, N-[[(5S)-3-[3-fluoro-4-(4-carboxymethylidenepiperidinyl)-phenyl]-2-oxo-5-oxazolidinyl]methyl]acetamide] | Minimum inhibition concentration (MIC) (VRE C6488): 8 µg/mL (≈ 20.4 µM)
